From PubChem BioAssay (NCI)
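GI50 marks 50% less growth. The concentration for full growth arrest is given as TGI.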

Assays:
Test in all cases: inhibition of tumour cell growth, NCI panel, 384-well format
SN12C renal = tested on: SN12C renal
CAKI-1 renal = tested on: CAKI-1 renal
EKVX NSCLC = tested on: EKVX NSCLC
LOX IMVI melanoma = tested on: LOX IMVI melanoma
COLO 205 colon = tested on: COLO 205 colon
HOP-62 NSCLC = tested on: HOP-62 NSCLC
HT29 colon = tested on: HT29 colon
MALME-3M melanoma = tested on: MALME-3M melanoma
ACHN renal = tested on: ACHN renal
A498 renal = tested on: A498 renal
HOP-92 NSCLC = tested on: HOP-92 NSCLC
BT-549 breast = tested on: BT-549 breast
RXF 393 renal = tested on: RXF 393 renal
SK-OV-3 ovarian = tested on: SK-OV-3 ovarian
DU-145 prostate = tested on: DU-145 prostate
MCF7 breast = tested on: MCF7 breast
HCT-116 colon = tested on: HCT-116 colon
KM12 colon = tested on: KM12 colon
HL-60(TB) leukemia = tested on: HL-60(TB) leukemia
A549 NSCLC = tested on: A549 NSCLC
HCC-2998 colon = tested on: HCC-2998 colon
786-0 renal = tested on: 786-0 renal
MDA-MB-231 breast = tested on: MDA-MB-231 breast
IGROV1 ovarian = tested on: IGROV1 ovarian
HS 578T breast = tested on: HS 578T breast
HCT-15 colon = tested on: HCT-15 colon
M14 melanoma = tested on: M14 melanoma

Structure (SMILES): CN1CCC(COc2cnc(-c3cccc(Cn4nc(-c5cccc(C#N)c5)ccc4=O)c3)nc2)CC1
- GI50 (SN12C renal): > 100000 nM
- TGI (SN12C renal): > 100000 nM
- GI50 (CAKI-1 renal): 1730 nM
- TGI (CAKI-1 renal): 3200 nM
- GI50 (EKVX NSCLC): 2770 nM
- TGI (EKVX NSCLC): 6490 nM
- GI50 (LOX IMVI melanoma): 1710 nM
- TGI (LOX IMVI melanoma): 3100 nM
- GI50 (COLO 205 colon): 2460 nM
- TGI (COLO 205 colon): 5350 nM
- GI50 (HOP-62 NSCLC): 1960 nM
- TGI (HOP-62 NSCLC): 3770 nM
- GI50 (HT29 colon): 1740 nM
- TGI (HT29 colon): 3150 nM
- GI50 (MALME-3M melanoma): 1590 nM
- TGI (MALME-3M melanoma): 2930 nM
- GI50 (ACHN renal): 2050 nM
- TGI (ACHN renal): 3760 nM
- GI50 (A498 renal): 2040 nM
- TGI (A498 renal): 3620 nM
- GI50 (HOP-92 NSCLC): 1720 nM
- TGI (HOP-92 NSCLC): 3400 nM
- GI50 (BT-549 breast): 1440 nM
- TGI (BT-549 breast): 2760 nM
- GI50 (RXF 393 renal): 1320 nM
- TGI (RXF 393 renal): 2640 nM
- GI50 (SK-OV-3 ovarian): > 100000 nM
- TGI (SK-OV-3 ovarian): > 100000 nM
- GI50 (DU-145 prostate): 2530 nM
- TGI (DU-145 prostate): 5890 nM
- GI50 (MCF7 breast): 1680 nM
- TGI (MCF7 breast): 3360 nM
- GI50 (HCT-116 colon): 1750 nM
- TGI (HCT-116 colon): 3160 nM
- GI50 (KM12 colon): 2380 nM
- TGI (KM12 colon): 4810 nM
- GI50 (HL-60(TB) leukemia): 1570 nM
- TGI (HL-60(TB) leukemia): 2910 nM
- GI50 (A549 NSCLC): 2200 nM
- TGI (A549 NSCLC): 4560 nM
- GI50 (HCC-2998 colon): 3200 nM
- TGI (HCC-2998 colon): 5670 nM
- GI50 (786-0 renal): 1690 nM
- TGI (786-0 renal): 3220 nM
- GI50 (MDA-MB-231 breast): 1940 nM
- TGI (MDA-MB-231 breast): 3410 nM
- GI50 (IGROV1 ovarian): 2170 nM
- TGI (IGROV1 ovarian): 4160 nM
- GI50 (HS 578T breast): 1480 nM
- TGI (HS 578T breast): 2850 nM
- GI50 (HCT-15 colon): 1450 nM
- TGI (HCT-15 colon): 2940 nM
- GI50 (M14 melanoma): 2090 nM
- TGI (M14 melanoma): 3530 nM
